Holding throughout (assay type): in vivo, mouse
One experiment relates to CTG3226 ovarian PDX. The experiment in a line: CTG3226 ovarian PDX model. To be noted: for Tumor growth inhibition (TGI %): CTG3226 PDX; for Mean Tumor volume (mm^3) ± SEM / TGI (%): CTG3226 ovarian cancer PDX. The procedure:
(§1) In-house in vivo patient derived xenograft (PDX) efficacy studies were conducted using 2 different ovarian PDX models, OVO857_CIS (“OVO0875”) and CTG3226. 6-8-week-old female NSG (NOD-SCID IL2Rgamma^null) as seed mice were implanted subcutaneously with tumor tissue fragments. When sufficient seed animals reached 1000-1500 mm^3, tumors were harvested, and fragments were implanted into study animals. When tumor volume reached approximately 150-250 mm^3, mice were randomly assigned into different groups (n=3 mice per group). One group received no treatment. Four groups were administered intravenously 10, 5, 2.5 and 1.25 mg/kg AB1370049-SG3932 DAR8 respectively. Two groups were administered intravenously 5 and 2.5 mg/kg FRα-DM4 ADC (“biosimilar to mirvetuximab soravtansine”, with a DAR of about 3) respectively. All dosed animals received drug intravenously as a single dose at 10 ml/kg, on day 39 for OVO857_CIS and day 46 for CTG3226 PDX models.
(§2) Tumor volumes were measured by digital caliper and the volumes of tumors were calculated using the following formula: tumor volume=[length (mm)×width (mm)^2×0.52, where the length and width are the longest and shortest diameters of the tumor, respectively. Body weights were measured twice weekly to assess tolerability of the treatments.
(§3) The growth of tumors in each experimental group was expressed as the mean tumor volume (mm^3)±SEM of the number of animals used.
(§4) Tumor growth inhibition (TGI) was calculated by comparing each treatment group to the untreated control group. Percentage inhibition was calculated from the group means using the following formula: […]
(§5) Where C is mean tumor volume of untreated control group and T is mean tumor volume of treated groups.

Experiment [1] relates to OVO857_CIS ("OVO0875") ovarian PDX. The experiment in a line: OVO857_CIS ovarian PDX model. To be noted: for Tumor growth inhibition (TGI %): OVO857 PDX; for Mean Tumor volume (mm^3) ± SEM / TGI (%): OVO875 ovarian cancer PDX. The method, then: as §1, §2, §3, §4, §5
In experiment [2] the test system is FRα-DM4-resistant OVCAR-3 tumors. The experiment in a line: FRα-DM4-resistant OVCAR3 xenograft model. Particulars: FRα-DM4 resistant OVCAR3 tumors re-implanted in new host mice; two doses (Q2W) of 5 mg/kg. The method, then: To develop the OVCAR3 xenograft model, 10×10^6 cells/mouse in 50% Matrigel were inoculated subcutaneously into female 6-8-week-old female NSG (NOD-SCID IL2Rgamma^null). When tumour volume reached within the range of 200-600 mm^3, mice were dosed intravenously with FRα-DM4 ADC (“biosimilar to mirvetuximab soravtansine”, with a DAR of about 3) at 5 mg/kg, once every 2 weeks (Q2W) continuously until tumours relapsed and began to grow in size again. Among mice relapsed after 8 rounds of Q2W dosing, 4 mice were selected and re-challenged with AB1370049-SG3932 DAR8 intravenously at 5 mg/kg Q2W, receiving 2 rounds of AB1370049-SG3932 DAR8 treatment.
Separately, relapsed tumor from an additional mouse was excised and re-implanted subcutaneously into female 6-8-week-old female NSG (NOD-SCID IL2Rgamma^null) mice. […]
Tumor volumes were measured by digital caliper and the volumes of tumors were calculated using the following formula: tumor volume=[length (mm)× width (mm)^2×0.52, where the length and width are the longest and shortest diameters of the tumor, respectively. Body weights were measured twice weekly to assess tolerability of the treatments.
as §3

Turning to “FRα-DM4 ADC: "biosimilar to mirvetuximab soravtansine", with a DAR of about 3”, the “Tumor growth inhibition (TGI %)” value is “no activity” in the experiment on CTG3226 ovarian PDX (single iv dose 2.5 mg/kg), 76.5% in the experiment with CTG3226 ovarian PDX (single iv dose 5 mg/kg), 2% in experiment [1] (single iv dose 2.5 mg/kg) and 24% in experiment [1] (single iv dose 5 mg/kg). Also, the “Mean Tumor volume (mm^3) ± SEM” value was 1127.58 ± 481.10 mm^3 in the experiment on CTG3226 ovarian PDX (single iv dose 2.5 mg/kg), 226.86 ± 46.03 mm^3 in the experiment with CTG3226 ovarian PDX (single iv dose 5 mg/kg), 1882.00 ± 199.43 mm^3 in experiment [1] (single iv dose 2.5 mg/kg) and 1457.15 ± 250.01 mm^3 in experiment [1] (single iv dose 5 mg/kg). For the same substance, the “TGI (%)” value in the experiment on CTG3226 ovarian PDX (single iv dose 2.5 mg/kg) is reported as −16.66%; in the experiment with CTG3226 ovarian PDX (single iv dose 5 mg/kg) it was 76.53%; in experiment [1] (single iv dose 2.5 mg/kg), 2.40%; in experiment [1] (single iv dose 5 mg/kg), 24.43%; in experiment [2] it was “still resistant to the treatment”.
